Test results taken from patent publication US20180209962A1, “SCREENING METHOD USING INDUCED NEURONS” (KYOTO UNIVERSITY, priority 2014, published 2018).

Key:
Type in all cases: cell-based
[1] = test system: mouse tauopathy iNs and mouse normal iNs; test: Action potential / excitatory postsynaptic current of iNs in the presence of glutamate receptor antagonists; details: for generation of excitatory postsynaptic current: mouse normal iNs, CNQX and AP-5 administered together; for generation of action potential: mouse tauopathy iNs and mouse normal iNs, AP-5 and CNQX present together
From the text: FIGS. 1A and 1B show results of confirming, by immunostaining (FIG. 1A) or RT-PCR (FIG. 1B), that iPSCs prepared from a transgenic mouse harboring a P301S mutant human MAPT gene (tauopathy mouse), or its non-transgenic litter (normal mouse) express an undifferentiation marker (Esg1, Eras, Nanog, or SSEA1). In FIG. 1B, tauopathy mouse MEFs (MEF) were used as a negative control, and mouse embryonic stem cells (ESCs) were used as a positive control. […] The inserted drawings show enlarged diagrams of neurites.
Accordingly, these iNs were confirmed to be glutamatergic neurons.

mouse tauopathy iNs [2] = test: Dot blot of tau oligomer in culture supernatant and cell extracts of mouse tauopathy iNs; details: added at day 5, 48 hours later, final concentration 25 μM
Description: (§1) FIG. 7 FIGS. 7A and 7B show results of adding AP-5 (final concentration: 25 μM) or CNQX (final concentration: 25 μM) to mouse tauopathy iNs or mouse normal iNs of day 5, preparing a culture supernatant and cell extracts 48 hours later, and analyzing the amounts of tau and a tau oligomer contained in the culture supernatant and the cell extracts by dot blot (FIG. 7A), and the results of quantifying their signals (FIG. 7B). In FIGS. 7C and 7D, AP-5 or CNQX was added to mouse tauopathy iNs of day 7, and a survival rate at day 10 (=the number of live neurons at day 10/the number of live neurons at day 7)×100) was indicated in a graph.
Cells were recovered from the culture system of iNs, suspended in TBS (Tris buffered saline) containing a protease inhibitor and a phosphatase inhibitor, and then ultrasonicated to homogenize the cells. The cell homogenates were centrifuged (13,000×g, 15 min), and the supernatant was recovered as cell extracts. The cell extracts from the iNs of each type were blotted at 1.2 μg protein/spot onto a nitrocellulose membrane (pore size: 0.45 μm, GE Healthcare Japan Corp.).
Also, a medium was recovered from the cell culture system and subjected to low-speed centrifugation (1,000 rpm, 3 min) to precipitate cellular debris. The obtained supernatant was recovered as a culture supernatant. A 500 μl aliquot of each culture supernatant was transferred to a tube with an ultrafiltration filter (Vivaspin, molecular weight cutoff: 10 kD, GE Healthcare Japan Corp.) and concentrated to 50 μl. 2 μl of each concentrated sample was blotted onto the nitrocellulose membrane.
The nitrocellulose membrane obtained by the method was treated with various tau antibodies according to a standard method, followed by detection (Western Lightning Plus-ECL, PerkinElmer, Inc.) and signal quantification (ImageQuant LAS4000, GE Healthcare Japan Corp.). Tau 12, Tau 5, and TOC1 antibodies were used a human tau-specific antibody, an antibody recognizing human tau and mouse tau, and a tau oligomer-specific antibody, respectively. In Examples of the present application, the TOC1 antibody (Non-Patent Document 13) used was provided by Dr. Nicholas Kanaan from Department of Translational Science and Molecular Medicine, College of Human Medicine, Michigan State University (USA).
(§2) AP-5 or CNQX was added to the culture system of mouse tauopathy iNs of day 5. 48 hours later, a culture supernatant and cell extracts were prepared therefrom, and the amount of a tau oligomer, the amount of human tau, and the total amount of tau were analyzed by dot blot (FIGS. 7A and 7B). Also, AP-5 or CNQX was added to the culture system of mouse tauopathy iNs of day 7. Three days later, a cell survival rate was calculated (FIGS. 7C and 7D).

mouse tauopathy iNs [3] = test: Cell survival rate of mouse tauopathy iNs; details: added at day 7, survival at day 10
Description: as §1, §2

human tauopathy iNs [4] = test: Cell survival rate of human tauopathy iNs; details: added at day 16, survival at day 21
From the text: FIGS. 10A and 10B show results of measuring change in intracellular calcium concentration between before and after electric stimulation by use of a calcium imaging method in human tauopathy iNs or human normal iNs of day 12 (FIG. 10A, n=6). The arrows shown in the abscissa represent time points at which the cells were given electric stimulation. The ordinate (ΔF/F) depicts change in the fluorescence intensity of a calcium indicator (Fluo-8/AM) after the stimulation with respect to its baseline fluorescence intensity. FIG. 10B is a graph on which the largest value of the ΔF/F was plotted. […] The upper left panel “pre” depicts the human tauopathy iNs of day 16 before the addition of the reagent.
Next, AP-5 or CNQX was added to the culture system of human tauopathy iNs of day 16, and a cell survival rate at day 21 was calculated. The treatment with any of these agents tended to elevate the cell survival rate.

human normal iNs [5] = test: Spontaneous firing rate using a MEA system; details: final concentration 1 μg/ml
Description: iPSCs for neural differentiation were inoculated to a culture dish for the exclusive use of MEA coated with poly-L-lysine and Matrigel, and induced to differentiate into neurons according to the [Approach 2]. At day 8 (mouse iNs) or day 12 (human iNs), extracellular electrical recordings were measured using a multielectrode array system (MEA60, Multi Channel Systems MCS GmbH). Data was obtained using MC_Rack software (extracellular electrical recordings). Offline Sorter ver. 3 (Plexon Inc.) was used in spike analysis. The spikes were sorted and then analyzed using Neuroexplorer software (Nex Technologies, LLC).
A culture supernatant of human tauopathy iNs or human normal iNs of days 12 to 14 was added to human normal iNs of day 20, and a spontaneous firing rate was measured using the MEA system of the [Approach 6]. […] By contrast, in the human normal iNs supplemented with the culture supernatant of the human normal iNs, no increase in spontaneous firing rate occurred substantially (FIGS. 12E and 12F).
The P301S tau monomer or the P301S tau oligomer was added (final concentration: 1 μg/ml) to the culture system of human normal iNs, and a spontaneous firing rate was measured using a MEA system ([Approach 6]). […]

human normal iNs [6] = test: Cell survival rate of human normal iNs after addition of P301S tau monomer or oligomer; details: for cell survival rate: two days later
Description: FIGS. 13D and 13F show results of adding the tau monomer or the tau oligomer of FIG. 13A to a medium of human normal iNs of day 20 and measuring a spontaneous firing rate using a MEA system (FIG. 13D). The arrows represent the timing at which the tau monomer or the tau oligomer was added. FIG. 13E is a graph indicating the ratio of spike number between before and after the addition.
P301S mutant human tau produced as a recombinant protein was oligomerized by incubation in the presence of heparin. Specifically, 0.5 mg/ml tau protein was incubated at 37° C. for 16 hours in a 10 mM HEPES buffer (pH 7.4) containing 10 μM heparin (Sigma-Aldrich Co. LLC) and 100 mM NaCl (Sahara N. and Takashima A, EMBO J., 26: 5143-52, 2007). Then, the solution was treated at 70° C. for 15 minutes and then subjected to SDS-PAGE and silver staining. As is evident, the tau before the incubation in the presence of the heparin was mostly monomeric and dimeric, whereas the tau after the incubation included a large number of trimeric or larger associates (i.e., tau oligomers). Hereinafter, the tau before the incubation in the presence of the heparin is referred to as a “P301S tau monomer”, and the tau after the incubation is referred to as a “P301S tau oligomer”.
The P301S tau monomer or the P301S tau oligomer was added to the culture system of human normal iNs, followed by cell survival rate analysis two days later.

human tauopathy iNs [7] = test: Sucrose density-gradient fractionation, localization of tau oligomer and lipid raft; details: tauopathy iNs treated with MbCD, then sucrose density-gradient fractionation, Western blot
From the text: FIGS. 11A and 11B show results of preparing a culture supernatant and cell extracts from human tauopathy iNs or human normal iNs of day 14 and analyzing the amounts of human tau and a tau oligomer contained in the culture supernatant or the cell extracts by use of dot blot (FIG. 11A), and graphs on which their signals were quantified (FIG. 11B).
Lipid raft was biochemically isolated from human tauopathy iNs or human normal iNs and analyzed for its colocalization with a tau oligomer. Specifically, iNs were homogenized using a 29-gauge needle in a buffer containing 1% Lubrol and a protease inhibitor, and the cell homogenates were adjusted to a sucrose concentration of 40%. Then, a 0.7 ml aliquot thereof was fractionated by the sucrose density-gradient centrifugation method. The sucrose density gradient used was steps of 30% (1.4 ml), 27.5% (0.7 ml), 24% (1.4 ml), and 3% […] (5-ml tube), and the centrifugation conditions involved 50,000 rpm, 4° C., and 16 hours using Optima-MAX XP1 (Beckman Coulter, Inc.). After the centrifugation, a 0.7 ml aliquot was recovered from the upper layer to obtain 7 fractions (F1 to F7).
The lipid raft (GM1 ganglioside) was recovered into F2 and F3 of the human normal iNs and contained in F2 and F3 as well as in a small amount in F4 of human tauopathy iNs. The tau oligomer in the tauopathy iNs was contained mainly in F3 and also contained in F2 and F4. […]

| Molecule | generation of excitatory postsynaptic current [1] | generation of action potential [1] | amount of a tau oligomer contained in the cell extracts (mouse tauopathy iNs [2]) | amount of a tau oligomer contained in the culture supernatant (mouse tauopathy iNs [2]) | cell survival rate (mouse tauopathy iNs [3]) | cell survival rate (human tauopathy iNs [4]; 25 μM) | spontaneous firing rate (human normal iNs [5]) | cell survival rate (human normal iNs [6]; 1 μg/ml) | also measured |
| --- | --- | --- | --- | --- | --- | --- | --- | --- | --- |
| N[C@H](CCCP(=O)(O)O)C(=O)O [AP-5, D-(−)-2-amino-5-phosphononpentanoic acid] | suppressed | did not generate action potential | no significant change | approximately 50 % of the negative control | approximately 2 times the negative control | significantly elevated |  |  | cell survival rate (human tauopathy iNs [4]; 12.5 μM): significantly elevated |
| P301S tau oligomer: recombinant P301S mutant human tau after incubation in the presence of heparin; trimeric or larger associates |  |  |  |  |  |  | approximately 290 % of that before the addition | significantly decreased | cell survival rate (human normal iNs [6]; 0.1 μg/ml): significantly decreased; induction of cell death (human normal iNs [6]; 100 ng/ml): tended to induce cell death, albeit not significant |
| N#Cc1cc2c(cc1[N+](=O)[O-])=NC(=O)C(=O)N=2 [CNQX, 6-cyano-7-nitroquinoxaline-2,3-dione] | suppressed | did not generate action potential | approximately 70 % of the negative control | approximately 50 % of the negative control | approximately 2 times the negative control | significantly elevated |  |  |  |
| Methyl-β-cyclodextrin [MbCD] |  |  |  |  |  |  |  |  | recovery of tau oligomer into lipid raft fractions (human tauopathy iNs [7]): not recovered into F2 to F4 |
| P301S tau monomer: recombinant P301S mutant human tau before the incubation with heparin, mostly monomeric and dimeric |  |  |  |  |  |  | approximately 120 % of that before the addition | not changed |  |
